Assay results from article PMC8715119, “Second-generation non-hematopoietic erythropoietin-derived peptide for neuroprotection” (Redox Biology, 2021).

Assays:
[1] = system: undifferentiated PC12 cells; assay: Cell proliferation (MTS) under low serum; assay type: cell-based, rat; conditions: 0.5% fetal bovine serum, 48 h, reEPO 10 IU/ml, peptides 10 ng/ml, n = 5, Fig. 4c
Experimental: PC12 cells (#CRL-1721, ATCC, USA), a rat pheochromocytoma cell line derived from the adrenal medulla (#CRL-1721, ATCC, USA), were seeded on a dish, which was coated by poly L-lysine (0.01%; Sigma Chemical Co., USA), and grown in RPMI 1640 medium (#11875093, Gibco, USA), supplemented with 10% heat-inactivated horse serum (#26050088, Gibco, USA), 5% fetal bovine serum (FBS) (#SH30919.03, Hyclone, USA), and 1% penicillin/streptomycin at 37°C with 5% CO2. […]
Cell viability was evaluated by 3-[(4,5-dimethylthiazol-2-yl)-5,3-carboxymethoxyphenyl]-2-(4-sulfophenyl)-2H tetrazolium, inner salt (MTS) reduction assay (CellTiter 96 Aqueous One Solution Cell Proliferation Assay, Promega, Madison, WI, USA). […] The intracellular soluble formazan produced by cellular reduction of the MTS was determined by recording the absorbance at 490 nm using a microplate reader (VersaMax, Molecular Devices, USA). Cell proliferation was also evaluated by the MTS assay. […] The next day, the initial cell number was counted; after 48 h, under low FBS concentration (0.5%), with or without reEPO and peptides, cell number was measured by the MTS assay.

[2] = system: differentiated neuronal PC12 cells; assay: Cellular ROS level by H2DCFDA under H2O2; assay type: cell-based, rat; conditions: H2O2 for 6 h; H2DCFDA staining; n = 5; Fig. 4b
Experimental: (§1) PC12 cells (#CRL-1721, ATCC, USA), a rat pheochromocytoma cell line derived from the adrenal medulla (#CRL-1721, ATCC, USA), were seeded on a dish, which was coated by poly L-lysine (0.01%; Sigma Chemical Co., USA), and grown in RPMI 1640 medium (#11875093, Gibco, USA), supplemented with 10% heat-inactivated horse serum (#26050088, Gibco, USA), 5% fetal bovine serum (FBS) (#SH30919.03, Hyclone, USA), and 1% penicillin/streptomycin at 37°C with 5% CO2. For neuronal differentiation, PC12 cells were plated at a density of 1.25x10^3 cell/cm^2 into 96-well plates coated with collagen 1 (#354236, BD Biosciences, USA) and grown in RPMI 1640 medium supplemented with 50 ng/ml nerve growth factor (NGF) (BD Biosciences, USA) and 0.5% FBS for 10 days. The NGF-supplemented media was replaced with fresh media every 3 days during neuronal differentiation.
The cellular ROS level was measured using 2′,7′-dichlorodihydrofluorescein diacetate (H2DCFDA) (#D399, Invitrogen, USA). The cells were incubated with 5 μM H2DCFDA in PBS for 30 min, washed with PBS, and then resuspended in the medium for 2 h. After treatment of H2O2 without or with reEPO, or peptide, we monitored the oxidative stress by measuring the fluorescence intensities of H2DCFDA by using excitation and emission wavelengths of 485 nm and 535 nm, respectively.

[3] = system: differentiated neuronal PC12 cells; assay: Cell viability (MTS) under H2O2-induced oxidative stress; assay type: cell-based, rat; conditions: 300 μM H2O2 for 24 h; peptides 1 ng/ml, reEPO 0.5 IU/ml; MTS; n = 3; Fig. 1c
Experimental: as §1
Cell viability was evaluated by 3-[(4,5-dimethylthiazol-2-yl)-5,3-carboxymethoxyphenyl]-2-(4-sulfophenyl)-2H tetrazolium, inner salt (MTS) reduction assay (CellTiter 96 Aqueous One Solution Cell Proliferation Assay, Promega, Madison, WI, USA). Briefly, differentiated neuronal-PC12 cells were treated with H2O2 (300 μM) with or without reEPO and peptides for 24 h. The PC12 cells were washed with PBS; 20 ul MTS solution was added to each well with 100 μl PBS, and the cells were incubated for 3 h at 37°C and 5% CO2. The intracellular soluble formazan produced by cellular reduction of the MTS was determined by recording the absorbance at 490 nm using a microplate reader (VersaMax, Molecular Devices, USA). Cell proliferation was also evaluated by the MTS assay. Undifferentiated PC12 cells were seeded into a 96-well plate (5x10^4 cells/well). The next day, the initial cell number was counted; after 48 h, under low FBS concentration (0.5%), with or without reEPO and peptides, cell number was measured by the MTS assay.

EphB4 (Homo sapiens) = EphB4 (Homo sapiens) (UniProt P54760); conditions: cited from earlier work
EPOR = conditions: as previously reported; cited from earlier work
Experimental: (§2) All peptides including ML1, ML1-c1, ML1-c2, ML1-c3, ML1-h1, ML1-h2, and ML1-h3 were synthesized as monomers by solid-phase peptide synthesis. […] To evaluate the purity and concentration of the peptides, LC/MSD (HP 1100 series) and HPLC analyses (SHIMADZU prominence HPLC) were performed. We obtained peptides having >95% purity and then dissolved with DMSO or water as a high ...

[4] = as previously reported; cited from earlier work
Experimental: as §2

[5] = biological target: T1, Soluble recombinant human EPOR-Fc chimera protein (human, UniProt P19235 25-250); assay: SPR; Reichert SR 7500 C; EPOR-Fc covalently immobilised by amine coupling on a carboxymethylated dextran chip; peptides at 5, 2.5 and 1.25 uM flowed at 5 ul/min, in duplicate; regeneration with 25 mM acetic acid; conditions: both partners purified
T1 construct: erythropoietin receptor (EPOR), human, soluble form fused to Fc; the discussion says the SPR analysis was based on only the extracellular domain of EPOR; also called erythropoietin receptor; source: bought: R&D Systems (#963-ER)
T1 sequence (looked up): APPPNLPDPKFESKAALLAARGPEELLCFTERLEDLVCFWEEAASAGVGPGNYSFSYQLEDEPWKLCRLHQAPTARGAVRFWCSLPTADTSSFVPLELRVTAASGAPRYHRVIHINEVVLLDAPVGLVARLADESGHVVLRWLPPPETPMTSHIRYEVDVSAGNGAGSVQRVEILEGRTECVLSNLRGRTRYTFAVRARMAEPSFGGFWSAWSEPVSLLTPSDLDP

EphB4 (Homo sapiens), sequence (P54760 16-539): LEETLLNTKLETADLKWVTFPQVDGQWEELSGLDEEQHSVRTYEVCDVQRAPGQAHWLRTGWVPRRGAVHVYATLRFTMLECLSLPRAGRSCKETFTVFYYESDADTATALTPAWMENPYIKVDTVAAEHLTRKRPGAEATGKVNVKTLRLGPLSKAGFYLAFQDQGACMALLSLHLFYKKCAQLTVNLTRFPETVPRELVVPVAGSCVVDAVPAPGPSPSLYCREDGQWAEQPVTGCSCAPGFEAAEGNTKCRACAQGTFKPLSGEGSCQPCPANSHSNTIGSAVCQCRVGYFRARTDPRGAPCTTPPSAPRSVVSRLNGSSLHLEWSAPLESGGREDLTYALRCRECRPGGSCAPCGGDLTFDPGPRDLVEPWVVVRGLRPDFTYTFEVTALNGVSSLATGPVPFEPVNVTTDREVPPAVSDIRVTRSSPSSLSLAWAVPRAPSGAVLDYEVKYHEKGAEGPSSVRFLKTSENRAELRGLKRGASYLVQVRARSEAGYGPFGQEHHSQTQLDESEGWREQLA

With “ML1: monomeric peptide spanning 118Leu-140Gly of helix C of EPO; prototype for second-generation EPO-derived peptide (LQLHVDKAVSGLRSLTTLLRALG)” the “Cell proliferation (cell number)” value [1] was “did not induce proliferation”, the “Level of reactive oxygen species (ROS) induced by H2O2” value [2] was “decreased the levels of reactive oxygen species (ROS)” and the “Cell viability (neuroprotective effect) against H2O2” value [3] was “a better neuroprotective effect than reEPO”.

For EPO (from UniProt P01588), the Kd (EphB4 (Homo sapiens)) is given as 880 nM.

For “ML4: monomeric peptide spanning 127Ser-140Gly of helix C of EPO”, the “Cell viability (neuroprotective effect) against H2O2” value [3] was “showed a neuroprotective effect”.

In the case of “AMELSGRTLGLILKLRQSATL [negative control peptide]”, the “Binding to EPOR” value (EPOR) is given as “did not bind to EPOR” and the “Effect on cell survival and proliferation” value [4] is given as “unaffected cell survival and proliferation”.

B1: ML1 (peptide, UniProt P01588 118-140, looked up)
peptide: LQLHVDKAVSGLRSLTTLLRALG
notes: Monomeric peptide; also called ML1 prototype; source: synthetic peptide (solid-phase synthesis, monomer, >95% purity; bought: Peptron Inc.)
B1: binds [5].
